Test results reported in patent US10450356B2, “PRAME derived peptides and immunogenic compositions comprising these” (Academisch Ziekenhuis Leiden H.O.D.N. LUMC, priority 2007, dated 2019).
Marks after values point to notes of the source that are not given here.

Molecular target: T1, 20S proteasomes purified from a B-LCL cell line (immunoproteasomes) (Homo sapiens, UniProt P28062+P28065+P40306)
T1 construct: 20S proteasomes were purified from a B-LCL cell line; endogenous in cells; purified after Groettrup et al. 1995
Experiment: In vitro proteasome mediated cleavage analysis
Type: biochemical
Parameters: key to Intact in fragment / Intact Fragment: intact epitope found in digestion fragments: (+), present; (-), not present; key to Processing C-term: generation by proteasome-mediated digestion of fragments containing the correct C-terminus: (++) fragments present for >5%; (+) present for <5%; (-) no fragments containing the C-term. were found
Conditions: for Processing C-term: generation by proteasome-mediated digestion of fragments containing the correct C-terminus: 1 h digestion; for Intact Fragment: intact epitope found in digestion fragments: after 1 h digestion; for C-term. generation: generation of C-terminus of the epitope after 1 h digestion; for Intact in fragment: intact epitope found in digestion fragments after 1 h digestion
Experimental: 20S proteasomes were purified from a B-LCL cell line as described by Groettrup et al. (J. Biol. Chem. 270:23808-23815; 1995). This cell type is known to contain immunoproteasomes. High LMP2 and 7 content was confirmed by 2-D immuno-blotting. To assess kinetics, digestions were performed with different incubation periods. Peptides (27 mers, 20 μg) were incubated with 1 μg of purified proteasome at 37° C. for 1 h, 4 h and 24 h in 300 μl proteasome digestion buffer as described (Eggers, et al. 1995. J. Exp. Med. 182:1865). Trifluoroacetic acid was added to stop the digestion and samples were stored at −20° C. before mass spectrometric analysis.
Electrospray ionization mass spectrometry was performed on a hybrid quadrupole time-of-flight mass spectrometer, a Q-TOF (Micromass), equipped with an on-line nanoelectrospray interface with an approximate flow rate of 250 nL/min. Injections were done with a dedicated micro/nano HPLC autosampler, the FAMOS (LC Packings). Digestion solutions were diluted five times in water-methanol-acetic acid (95:5:1, v/v/v), and trapped on the precolumn (MCA-300-05-C8; LC Packings) in water-methanol-acetic acid (95:5:1, v/v/v). Washing of the precolumn was done for 3 min to remove the buffers present in the digests. Subsequently, the trapped analytes were eluted with a steep gradient going from 70% B to 90% B in 10 min, with a flow of 250 nl/min (A: water-methanol-acetic acid (95:5:1, v/v/v); B: water-methanol-acetic acid (10:90:1, v/v/v)). This low elution rate allows for a few additional MS/MS experiments if necessary during the same elution. Mass spectra were recorded from mass 50-2000 Da every second. The resolution allows direct determination of the monoisotopic mass, also from multiple charged ions. The peaks in the mass spectrum were searched in the digested precursor peptide using the Biolynx/proteins software (Micromass). The intensity of the peaks in the mass spectra was used to establish the relative amounts of peptides generated by proteasome digestion.

CC(C)C[C@H](NC(=O)[C@@H](NC(=O)[C@@H]1CCCN1C(=O)[C@H](CC(C)C)NC(=O)[C@H](CCCCN)NC(=O)[C@H](Cc1c[nH]c2ccccc12)NC(=O)[C@@H](NC(=O)[C@@H](N)CS)[C@@H](C)O)[C@@H](C)O)C(=O)N[C@@H](C)C(=O)N[C@@H](CCCCN)C(=O)O
Processing C-term: generation by proteasome-mediated digestion of fragments containing the correct C-terminus: - | Intact Fragment: intact epitope found in digestion fragments: -

CC(C)C[C@H](NC(=O)[C@@H](NC(=O)[C@@H]1CCCN1C(=O)[C@H](CC(C)C)NC(=O)[C@H](CCCCN)NC(=O)[C@H](Cc1c[nH]c2ccccc12)NC(=O)[C@@H](NC(=O)[C@@H](N)CS)[C@@H](C)O)[C@@H](C)O)C(=O)N[C@@H](C)C(=O)O
Processing C-term: generation by proteasome-mediated digestion of fragments containing the correct C-terminus: - | Intact Fragment: intact epitope found in digestion fragments: -

CC[C@H](C)[C@H](N)C(=O)N[C@@H](Cc1ccccc1)C(=O)N[C@@H](C)C(=O)N[C@@H](CCSC)C(=O)N1CCC[C@H]1C(=O)N[C@@H](CCSC)C(=O)N[C@@H](CCC(N)=O)C(=O)N[C@@H](CC(=O)O)C(=O)N[C@H](C(=O)O)[C@@H](C)CC
Processing C-term: generation by proteasome-mediated digestion of fragments containing the correct C-terminus: - | Intact Fragment: intact epitope found in digestion fragments: -

CC[C@H](C)[C@H](NC(=O)[C@H](CCSC)NC(=O)[C@H](CCC(N)=O)NC(=O)CNC(=O)[C@H](CC(C)C)NC(=O)[C@H](Cc1ccc(O)cc1)NC(=O)[C@@H]1CCCN1C(=O)[C@H](CO)NC(=O)[C@H](Cc1ccccc1)NC(=O)[C@@H](N)CCCCN)C(=O)O
Processing C-term: generation by proteasome-mediated digestion of fragments containing the correct C-terminus: - | Intact Fragment: intact epitope found in digestion fragments: -

CC[C@H](C)[C@H](NC(=O)[C@H](CC(=O)O)NC(=O)[C@H](CCC(N)=O)NC(=O)[C@H](CCSC)NC(=O)[C@@H]1CCCN1C(=O)[C@H](CCSC)NC(=O)[C@H](C)NC(=O)[C@H](Cc1ccccc1)NC(=O)[C@@H](NC(=O)[C@@H](N)CCCCN)[C@@H](C)CC)C(=O)O
Processing C-term: generation by proteasome-mediated digestion of fragments containing the correct C-terminus: - | Intact Fragment: intact epitope found in digestion fragments: -

CC(C)C[C@H](NC(=O)[C@H](C)NC(=O)[C@H](CCC(N)=O)NC(=O)[C@H](CC(C)C)NC(=O)[C@H](CS)NC(=O)[C@H](CCC(N)=O)NC(=O)[C@H](CC(C)C)NC(=O)[C@H](CO)NC(=O)[C@@H](N)CC(C)C)C(=O)N[C@@H](Cc1ccc(O)cc1)C(=O)O
Processing C-term: generation by proteasome-mediated digestion of fragments containing the correct C-terminus: - | Intact Fragment: intact epitope found in digestion fragments: -

CC(C)C[C@H](NC(=O)[C@H](Cc1ccccc1)NC(=O)[C@H](Cc1ccccc1)NC(=O)[C@H](CC(C)C)NC(=O)[C@H](CO)NC(=O)[C@H](CC(=O)O)NC(=O)[C@@H](NC(=O)[C@H](Cc1ccc(O)cc1)NC(=O)[C@@H](N)CC(C)C)C(C)C)C(=O)O
Processing C-term: generation by proteasome-mediated digestion of fragments containing the correct C-terminus: ++ ((++) fragments present for >5%) | Intact Fragment: intact epitope found in digestion fragments: + | C-term. generation: ++ (abundant (++) present for >5%) | Intact in fragment: +

CC(C)C[C@H](NC(=O)[C@H](CC(C)C)NC(=O)[C@H](CC(C)C)NC(=O)[C@H](CCCNC(=N)N)NC(=O)[C@H](CCCNC(=N)N)NC(=O)[C@H](CC(C)C)NC(=O)[C@@H](N)CC(N)=O)C(=O)N[C@@H](CO)C(=O)N[C@@H](Cc1c[nH]cn1)C(=O)O
Processing C-term: generation by proteasome-mediated digestion of fragments containing the correct C-terminus: - | Intact Fragment: intact epitope found in digestion fragments: -

CC(C)C[C@H](NC(=O)[C@@H](NC(=O)[C@@H]1CCCN1)[C@@H](C)O)C(=O)N[C@@H](C)C(=O)N[C@@H](CCCCN)C(=O)N[C@@H](Cc1ccccc1)C(=O)N[C@@H](CO)C(=O)N1CCC[C@H]1C(=O)N[C@@H](Cc1ccc(O)cc1)C(=O)O
Processing C-term: generation by proteasome-mediated digestion of fragments containing the correct C-terminus: - | Intact Fragment: intact epitope found in digestion fragments: -

CC[C@H](C)[C@H](NC(=O)[C@H](CCSC)NC(=O)[C@H](CCC(N)=O)NC(=O)CNC(=O)[C@H](CC(C)C)NC(=O)[C@H](Cc1ccc(O)cc1)NC(=O)[C@@H]1CCCN1)C(=O)N[C@@H](CC(N)=O)C(=O)N[C@@H](CC(C)C)C(=O)O
Processing C-term: generation by proteasome-mediated digestion of fragments containing the correct C-terminus: +^(k) ((+) present for <5%) | Intact Fragment: intact epitope found in digestion fragments: + | Intact in fragment: +

CC(C)C[C@H](NC(=O)[C@H](CO)NC(=O)[C@H](CC(C)C)NC(=O)[C@H](Cc1ccccc1)NC(=O)[C@H](CCC(N)=O)NC(=O)[C@H](CO)NC(=O)[C@@H](NC(=O)[C@H](Cc1ccccc1)NC(=O)[C@@H](N)CCC(N)=O)[C@@H](C)O)C(=O)O
Processing C-term: generation by proteasome-mediated digestion of fragments containing the correct C-terminus: ++ ((++) fragments present for >5%) | C-term. generation: ++ (abundant (++) present for >5%)

CC[C@H](C)[C@H](NC(=O)[C@H](Cc1ccc(O)cc1)NC(=O)[C@@H](N)CCC(N)=O)C(=O)N[C@@H](C)C(=O)N[C@@H](CCC(N)=O)C(=O)N[C@@H](Cc1ccccc1)C(=O)N[C@H](C(=O)N[C@@H](CO)C(=O)N[C@@H](CCC(N)=O)C(=O)N[C@@H](Cc1ccccc1)C(=O)O)[C@@H](C)O
Processing C-term: generation by proteasome-mediated digestion of fragments containing the correct C-terminus: ++ ((++) fragments present for >5%) | Intact Fragment: intact epitope found in digestion fragments: + | C-term. generation: ++ (abundant (++) present for >5%) | Intact in fragment: +

CC[C@H](C)[C@H](NC(=O)[C@H](CO)NC(=O)CNC(=O)[C@H](Cc1c[nH]c2ccccc12)NC(=O)[C@H](CC(C)C)NC(=O)[C@@H](N)CCCNC(=N)N)C(=O)N[C@@H](CCC(N)=O)C(=O)N[C@@H](CO)C(=O)N[C@@H](CCCNC(=N)N)C(=O)N[C@@H](Cc1ccc(O)cc1)C(=O)O
Processing C-term: generation by proteasome-mediated digestion of fragments containing the correct C-terminus: - | Intact Fragment: intact epitope found in digestion fragments: -

CC(C)C[C@H](NC(=O)[C@H](C)NC(=O)[C@H](CCC(N)=O)NC(=O)[C@H](CC(C)C)NC(=O)[C@H](CS)NC(=O)[C@H](CCC(N)=O)NC(=O)[C@H](CC(C)C)NC(=O)[C@@H](N)CO)C(=O)N[C@@H](Cc1ccc(O)cc1)C(=O)N[C@H](C(=O)O)C(C)C
Processing C-term: generation by proteasome-mediated digestion of fragments containing the correct C-terminus: + ((+) present for <5%) | Intact Fragment: intact epitope found in digestion fragments: -

CC(C)C[C@H](NC(=O)[C@H](Cc1ccc(O)cc1)NC(=O)[C@@H]1CCCN1C(=O)[C@H](CO)NC(=O)[C@H](Cc1ccccc1)NC(=O)[C@H](CCCCN)NC(=O)[C@H](C)NC(=O)[C@H](CC(C)C)NC(=O)[C@@H](N)[C@@H](C)O)C(=O)O
Processing C-term: generation by proteasome-mediated digestion of fragments containing the correct C-terminus: + ((+) present for <5%) | Intact Fragment: intact epitope found in digestion fragments: + | C-term. generation: + (low abundant (+) present for <5%) | Intact in fragment: +

CC[C@H](C)[C@H](NC(=O)[C@@H](N)Cc1ccc(O)cc1)C(=O)N[C@@H](C)C(=O)N[C@@H](CCC(N)=O)C(=O)N[C@@H](Cc1ccccc1)C(=O)N[C@H](C(=O)N[C@@H](CO)C(=O)N[C@@H](CCC(N)=O)C(=O)N[C@@H](Cc1ccccc1)C(=O)N[C@@H](CC(C)C)C(=O)O)[C@@H](C)O
Processing C-term: generation by proteasome-mediated digestion of fragments containing the correct C-terminus: ++ ((++) fragments present for >5%) | Intact Fragment: intact epitope found in digestion fragments: + | C-term. generation: ++ (abundant (++) present for >5%) | Intact in fragment: +

CC[C@H](C)[C@H](NC(=O)[C@H](CCSC)NC(=O)[C@H](CCC(N)=O)NC(=O)CNC(=O)[C@H](CC(C)C)NC(=O)[C@@H](N)Cc1ccc(O)cc1)C(=O)N[C@@H](CC(N)=O)C(=O)N[C@@H](CC(C)C)C(=O)N[C@@H](CCCNC(=N)N)C(=O)N[C@@H](CCCNC(=N)N)C(=O)O
Processing C-term: generation by proteasome-mediated digestion of fragments containing the correct C-terminus: - | Intact Fragment: intact epitope found in digestion fragments: -

CC(C)C[C@H](NC(=O)[C@H](Cc1ccccc1)NC(=O)[C@H](Cc1ccccc1)NC(=O)[C@H](CC(C)C)NC(=O)[C@H](CO)NC(=O)[C@H](CC(=O)O)NC(=O)[C@@H](NC(=O)[C@@H](N)Cc1ccc(O)cc1)C(C)C)C(=O)N[C@@H](CCCNC(=N)N)C(=O)O
Processing C-term: generation by proteasome-mediated digestion of fragments containing the correct C-terminus: + ((+) present for <5%) | Intact Fragment: intact epitope found in digestion fragments: -
